Assays:
[1] = target: EGFR intracellular kinase domain (Homo sapiens, UniProt P00533); experiment: SPR binding (Biacore 8K); design: the intracellular tyrosine kinase (TK) domain of EGFR, tagged with GST; purchased Sinobiological, China; details: without ATP
Excerpt: The extracellular ligand-binding domain of EGFR, tagged with His, and the intracellular tyrosine kinase (TK) domain of EGFR, tagged with GST, were acquired from Sinobiological, China. Kinase assay systems for both wild-type EGFR and its mutants—T790M, L858R, and the dual L858R/T790M—were procured from Promega Corporation, USA. Cell lines including MCF-7, A549, A431, H1299, HL-60, and MCF-10A were obtained from the China Infrastructure Cell Line Resources.
The binding affinities of compounds towards EGFR extracellular ligand binding domain and EGFR intracellular kinase domain were assayed using the SPR-based Biacore 8K instrument (Cytiva). Considering the purchased EGFR was fused with GST tag, GST alone was also immobilized on the chip to do the binding measurement. All the proteins were respectively immobilized on a CM5 sensor chip by using standard amine-coupling at 25°C with running buffer HEPES-P (20 mM HEPES buffer, […], 0.05% surfactant P20, pH 7.4). A reference channel was only activated and blocked to eliminate compound unspecific binding to the surface of the chip. The immobilization level of EGFR extracellular ligand binding domain, EGFR intracellular kinase domain and GST were all about 10,000 RU. […] Extra wash with 50% DMSO was added to remove the last remaining sample in the pipeline.

HL-60 cells = experiment: MTT assay, HL-60; format: cell-based, human; details: HL-60 (low EGFR-expressing), 10 μM
Description: (§1) The cell lines MCF-7 and A431 were cultured in Dulbecco’s Modified Eagle’s Medium (DMEM, Gibco, USA), while HL-60, H1299, and A549 cells were maintained in RPMI-1640 medium (Gibco, USA). Both mediums were enriched with 10% fetal bovine serum and 1% penicillin/streptomycin. […] All cell cultures were incubated at 37°C in an atmosphere containing 5% CO2.
(§2) Cells in the exponential growth phase were seeded into 96-well plates and allowed to adhere overnight. Subsequently, they were treated in triplicate with various concentrations of the compounds (0, 1.56, 3.13, 6.25, 12.5, 25, 50, 100 µM), […]. After 24 h, 20 µL of Methyl-thiazolyldiphenyl-tetrazolium bromide (MTT, 5 mg/mL, Thermo Fisher Scientific) was added to each well and incubated for a minimum of 4 h. Following the incubation, the medium containing the compounds and MTT was removed from each well, and 200 µL of dimethyl sulfoxide (DMSO) was added. The plates were then shaken for 10 min at 37°C to dissolve the formazan crystals. The absorbance was measured using a microplate reader (BioTek Synergy 4) at a wavelength of 490 nm.

A549 cells = experiment: MTT assay, A549; format: cell-based, human; details: A549 (high EGFR-expressing), 10 μM
Description: as §1, §2

MCF-7 cells = experiment: Annexin V-FITC/PI apoptosis analysis; format: cell-based, human; details: 24 h
Description: Apoptosis was evaluated using the Annexin V-FITC/PI Apoptosis Detection Kit (Vazyme). The harvested MCF-7 cells were first resuspended in 1× binding buffer from the kit to achieve a final concentration of 1×10^6 cells/ml. Next, 100 μL of the cell suspension, 5 μL of Annexin V, and 10 μL of PI were mixed and incubated in the dark for 15 min. Subsequently, 400 μL of 1× binding buffer was added to the mixture in preparation for apoptosis analysis.

EGFR kinase domain = target: T1, EGFR kinase domain (Homo sapiens, UniProt P00533); experiment: Differential Scanning Fluorimetry (DSF); format: binding; details: 10 µM; 52.6°C at 0 µM
T1 construct: the intracellular tyrosine kinase (TK) domain of EGFR, tagged with GST; purchased Sinobiological, China
Description: In the Differential Scanning Fluorimetry (DSF) study, concentrations of Tandyukisin-1.3, 2.5, 5, and 10 µM-were incubated with 0.05 mg/mL of the EGFR kinase domain. A control sample, containing only 5% DMSO, was used alongside the EGFR kinase domain. The thermal stability of the EGFR kinase domain was assessed using PR NT.48 (NanoTemper). The assay conditions were set to a temperature range of 25°C–95°C with a ramp rate of 1 °C/min.

BCL-2 = experiment: Western blotting of MCF-7 lysates, BCL-2; format: cell-based, human; details: for BCL-2 WB Normalized: control 0 µM 0.841817367
Description: (§3) MCF-7 cell lysates were prepared by rinsing the cells twice with PBS and then solubilizing them in lysis buffer (NP40 supplemented with protease and phosphatase inhibitor cocktails) on ice. The solubilization process involved rotating the lysis buffer/cell mixture end over end for 10 min at 4°C. After centrifugation for 10 min at 4°C to remove insoluble material, the protein concentration of the solubilized protein was determined using a BCA assay. Subsequently, samples were diluted in SDS sample buffer. Equivalent amounts of protein were separated by SDS-PAGE, transferred to PVDF membranes, and probed with the indicated antibody. Prior to incubation with primary antibodies overnight at 4°C, the membranes were blocked with 5% skim milk-TBST. The antibodies and their sources were as follows: PARP1 (1:500, Santa Cruz Biotechnology), Cleaved Caspase-3 (1:1000, Cell Signaling Technology), BAX (1:500, Santa Cruz Biotechnology), BCL-2 (1:500, Santa Cruz Biotechnology), and GAPDH (1:500, Santa Cruz Biotechnology). Following incubation with horseradish peroxidase-conjugated goat anti-mouse or goat anti-rabbit secondary antibody (Santa Cruz Biotechnology), the detected proteins were visualized using the Pierce Enhanced Chemiluminescence (ECL) reagent and a UV Products imaging system. Band intensities were quantified using the National Institutes of Health ImageJ software.

PARP1 = experiment: Western blotting of MCF-7 lysates, PARP1; format: cell-based, human; details: for PARP1 WB Normalized: control 0 µM 1.034604877
Description: as §3

EGFR intracellular kinase domain, sequence (P00533 712-979 limits assumed): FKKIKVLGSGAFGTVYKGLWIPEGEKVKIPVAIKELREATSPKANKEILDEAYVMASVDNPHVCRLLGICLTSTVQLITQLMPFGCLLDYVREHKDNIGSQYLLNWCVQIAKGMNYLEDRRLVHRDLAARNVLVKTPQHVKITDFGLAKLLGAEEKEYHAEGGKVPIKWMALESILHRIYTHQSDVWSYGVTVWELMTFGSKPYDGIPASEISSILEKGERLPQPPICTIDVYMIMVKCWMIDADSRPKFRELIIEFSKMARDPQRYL
T1 sequence (P00533 712-979 limits assumed): as above

SMILES: COC(=O)C/C(C)=C/C(=O)O[C@@H]1C[C@@H](C)[C@H]2[C@@H](C=C[C@H](CC(C)C)[C@]2(C)C(=O)/C=C\O)[C@@H]1O [Tandyukisin]
- Kd [1]: 5.57 µM
- kon ([1]; Figure 4A-B, read-out: ka, EGFR kinase domain): 3050 M⁻¹ s⁻¹
- cell lethality percentage (HL-60 cells): 11.1% ± 1.2%
- cell lethality percentage (A549 cells): 72.1% ± 1.8%
- apoptosis ratio (lower right quadrant, early apoptosis: PI negative, annexin V-FITC positive) (MCF-7 cells; 5 μM): 12.10%
- apoptosis ratio (lower right quadrant, early apoptosis: PI negative, annexin V-FITC positive) (MCF-7 cells; 10 μM): 14.37%
- apoptosis ratio (lower right quadrant, early apoptosis: PI negative, annexin V-FITC positive) (MCF-7 cells; 20 μM): 19.24%
- melting temperature (Tm) of EGFR kinase domain (EGFR kinase domain): 54.2 °C
- BCL-2 WB Gray Value (BCL-2; 5 µM): 41097.258
- BCL-2 WB Normalized (BCL-2; 5 µM): 0.9373
- BCL-2 WB Gray Value (BCL-2; 10 µM): 21588.48
- BCL-2 WB Normalized (BCL-2; 10 µM): 0.4959
- BCL-2 WB Gray Value (BCL-2; 20 µM): 7215.723
- BCL-2 WB Normalized (BCL-2; 20 µM): 0.211
- PARP1 WB Gray Value (PARP1; 5 µM): 43160.066
- PARP1 WB Normalized (PARP1; 5 µM): 0.9844
- PARP1 WB Gray Value (PARP1; 10 µM): 33044.409
- PARP1 WB Normalized (PARP1; 10 µM): 0.759
- PARP1 WB Gray Value (PARP1; 20 µM): 24731.459
- PARP1 WB Normalized (PARP1; 20 µM): 0.7232
- expression level of PARP1 (PARP1; MCF-7, upon treatment): decreased

Reference: article PMC11094307, “Marine-derived EGFR inhibitors: novel compounds targeting breast cancer growth and drug resistance” (Frontiers in Pharmacology, 2024)
